Assay results as given in US20260007634A1, “PHARMACEUTICAL COMPOSITIONS FOR THE TREATMENT OF ALLERGIC DISEASES” (KINKI UNIVERSITY, priority 2022, published 2026).

Tests used:
TSLP = test: Auricular tissue TSLP ELISA, atopic dermatitis mice; type: in vivo, mouse; details: day 7, topical application, control 317, vehicle 1533
Procedure: MC903 at 2 nM was applied to the right auricle of a 6-week-old male Balb/c (Japan SLC Inc.). Starting 8 h later, 5% norathyriol aqueous solution (1 mL of ethanol containing […] of norathyriol), betamethasone ointment, and delgocitinib ointment were applied to the auricle for 7 days. The measurement of auricular skin swelling was calculated by calipers. The day on which the first application of the compound was made was defined as day 0. Betamethasone and delgocitinib are currently in clinical use in atopic dermatitis and were used as control drugs in this example.
The mouse TSLP ELISA kit (R&D) was used for this measurement.

[1] = tested on: B cells collected from mice; test: BAFF-induced differentiation into mature B cells (IgM/IgD flow cytometry); type: cell-based, mouse; details: 100 ng/mL BAFF, 10 days, 100 μM mangiferin, 20 μM 1,3,5,6-tetrahydroxyxanthone, 10 μM others
Procedure: B cells collected from mice were cultured in RPMI 1640 medium for 1 day. Then, 100 μM mangiferin, 10 μM mangiferin 8a, 10 μM norathyriol, 20 μM 1,3,5,6-tetrahydroxyxanthone, 10 μM xanthohydrol, 10 μM α-mangostin, 10 μM of γ-mangostin were added to B cell, and after 1 day of culture, 100 ng/mL of BAFF was added, followed by 10 days of culture. After 10 days of culture, cells were stained with anti-IgM and anti-IgD antibodies, markers of B cells, and the expression of IgM and IgD was measured using BD LSRFortessa. Note that IgM negative and IgD negative indicates pre-B cells, IgM positive and IgD negative indicates immature B cells, and IgM positive and IgD positive indicates mature B cells.

TNFα = test: BAFF-induced TNFα secretion in B cells (ELISA); type: cell-based, mouse; details: DBA/1J spleen B cells; 10 μM compound, 100 ng/mL BAFF, 7 days; control 11.34, BAFF only 230.64
Procedure: (§1) Spleens were harvested from 6-week-old male DBA/1J mice and B cells were isolated. After isolation, the cells were cultured in RPMI 1640 medium for 1 day. Then, 10 μM mangiferin 8a and 10 μM norathyriol were added to B cells, and 100 ng/mL of BAFF was added to each 3 h later, and the cells were cultured for 7 days. After 7 days of culture, the culture supernatant was collected and TNFα secretion was measured by enzyme-linked immunosorbent assay (ELISA). This assay was performed using a mouse TNFα ELISA kit (R&D).

IL-6 = test: BAFF-induced IL-6 secretion in B cells (ELISA); type: cell-based, mouse; details: DBA/1J spleen B cells; 10 μM compound, 100 ng/mL BAFF, 7 days; control 26.06, BAFF only 454.47
Procedure: as §1, with “IL-6” for “TNFα”

mouse B cells = test: LPS-stimulated B cell proliferation (trypan blue); type: cell-based; details: 10 μM compound, 10 μg/mL LPS 3 days, control 1.66×10^4, LPS 4.25×10^4
Procedure: The inhibitory effect of the compound on B cell proliferation was examined using mouse B cells.
B cells collected from mice were cultured in RPMI 1640 medium for 1 day. Then, 10 μM mangiferin 8a and 10 μM norathyriol were added to B cells, and after 1 day of culture, 10 μg/mL of lipopolysaccharide (LPS) was added to each for 3 days. After 3 days of incubation, the number of viable cells was determined by the trypan blue dye method. Note that LPS was used as an allergic inflammation inducer.
Referring to FIG. 48, the horizontal axis indicates treatment with each compound and the vertical axis indicates cell count (1×10^4 cells/mL). Only 0.5% DMSO in PBS, which was used to dissolve the reagent (compound), was added as control. The LPS group is referred to as the LPS group with 10 μg/mL LPS, the mangiferin 8a group is referred to as the mangiferin 8a group with LPS and mangiferin 8a, and the norathyriol group is referred to as the norathyriol group with LPS and norathyriol.

[2] = tested on: Monocytes collected from mice; test: LPS-induced macrophage activation (CD11b/F4/80 flow cytometry); type: cell-based, mouse; details: 10 μM compound, 10 μg/mL LPS, 10 days; control 6.38, LPS only 26.8
Procedure: Monocytes collected from mice were cultured in RPMI 1640 medium for 1 day. Then, 10 μM mangiferin 8a and 10 μM norathyriol were added to monocytes, and after 1 day of culture, 10 μg/mL of LPS was added, followed by 10 days of culture. After 10 days of culture, cells were stained with anti-CD11b and anti-F4/80 antibodies, markers of macrophages, and expression of CD11b and F4/80 was measured using BD LSRFortessa. Note that CD11b positive and F4/80 positive indicate activated macrophages.

NF-κB p52 = test: BAFF-stimulated B cells, nuclear NF-κB p52 (Western blotting); type: cell-based, mouse; details: vs 100 ng/mL BAFF; 100 μM mangiferin, 20 μM 1,3,5,6-tetrahydroxyxanthone, 10 μM others
Procedure: Spleens were harvested from 6-week-old male Balb/c mice and B cells were isolated. After isolation, the cells were seeded in […] dish and cultured in RPMI 1640 medium for 1 day and used as control. In addition, B cells were seeded into 100 mm^2 dish, and after 1 day of culture, 100 ng/mL BAFF was added and cultured for 1 h. Furthermore, B cells were seeded in […] dish, and after 1 day of culture, 100 μM mangiferin, 10 μM mangiferin 8a, 10 μM norathyriol, 20 μM 1,3,5,6-tetrahydroxyxanthone, 10 μM xanthohydrol, 10 μM of α-mangostin, and 10 μM of γ-mangostin were added to B cells, and after 23 h, 100 ng/mL BAFF was added to each, and the cells were incubated for 1 h. All were incubated at 37° C. and 5% CO2.
Proteins were extracted with cell lysate and used as samples. Each sample was transferred to a PVDF membrane after SDSPAGE and assayed with anti-phospho-NIK, anti-NIK, anti-NF-κB p52, anti-NF-κB p65 and anti-Lamin antibodies.
The antibody species is indicated in the vertical direction. Specifically, in the case of anti-phospho-NIK antibody (described as “Phospho-NIK”), anti-NIK antibody (described as “NIK”), anti-NF-κB p52 antibody (described as “NF-κB p52 nuclear”), anti-NF-κB p65 antibody (described as “NF-κB p65 nuclear”) and anti-Lamin antibody (described as “Lamin”).

Q: With O=c1c2cc(O)c(O)cc2oc2cc(O)cc(O)c12 [norathyriol, 1,3,6,7-tetrahydroxyxanthone] as the compound, how does the TSLP secretion (TSLP) read?
A: 1026 pg/mL

Q: What about the “population IgM positive and IgD positive (mature B cells)” value ([1]; control 0, BAFF only 45.6) of the same compound?
A: 0.062%

Q: And the “population IgM positive and IgD negative (immature B cells)” value ([1]; control 0.529, BAFF only 42.3)?
A: 1.46%

Q: What about the “population IgM negative and IgD negative (pre-B cells)” value ([1]; control 99.5, BAFF only 11.7) of the same compound?
A: 98.5%

Q: What about the TNFα secretion (TNFα) of the same compound?
A: 45.07 pg/mL

Q: And the IL-6 secretion (IL-6)?
A: 61.39 pg/mL

Q: What about the “number of viable cells (cell count)” value (mouse B cells) of the same compound?
A: 1.16×10^4 cells/mL

Q: What about the “CD11b positive and F4/80 positive population (activated macrophages)” value [2] of the same compound?
A: 11.6%

Q: What about the “nuclear NF-κB p52 band (immunoblotting)” value (NF-κB p52) of the same compound?
A: fainter
